Assay results as given in patent US20230382924A1, “MODULATORS OF CYSTIC FIBROSIS TRANSMEMBRANE CONDUCTANCE REGULATOR” (VERTEX PHARMACEUTICALS INCORPORATED, priority 2020, published 2023).
Where two headings read alike, the source gives them in different places.

Columns and labels:
CFTR [1] = target: T1, CFTR (Homo sapiens, UniProt P13569); assay: standard Ussing Chamber Assay for CFTR potentiator activity; type: cell-based
Target sequence in this assay (P13569 whole entry, species assumed): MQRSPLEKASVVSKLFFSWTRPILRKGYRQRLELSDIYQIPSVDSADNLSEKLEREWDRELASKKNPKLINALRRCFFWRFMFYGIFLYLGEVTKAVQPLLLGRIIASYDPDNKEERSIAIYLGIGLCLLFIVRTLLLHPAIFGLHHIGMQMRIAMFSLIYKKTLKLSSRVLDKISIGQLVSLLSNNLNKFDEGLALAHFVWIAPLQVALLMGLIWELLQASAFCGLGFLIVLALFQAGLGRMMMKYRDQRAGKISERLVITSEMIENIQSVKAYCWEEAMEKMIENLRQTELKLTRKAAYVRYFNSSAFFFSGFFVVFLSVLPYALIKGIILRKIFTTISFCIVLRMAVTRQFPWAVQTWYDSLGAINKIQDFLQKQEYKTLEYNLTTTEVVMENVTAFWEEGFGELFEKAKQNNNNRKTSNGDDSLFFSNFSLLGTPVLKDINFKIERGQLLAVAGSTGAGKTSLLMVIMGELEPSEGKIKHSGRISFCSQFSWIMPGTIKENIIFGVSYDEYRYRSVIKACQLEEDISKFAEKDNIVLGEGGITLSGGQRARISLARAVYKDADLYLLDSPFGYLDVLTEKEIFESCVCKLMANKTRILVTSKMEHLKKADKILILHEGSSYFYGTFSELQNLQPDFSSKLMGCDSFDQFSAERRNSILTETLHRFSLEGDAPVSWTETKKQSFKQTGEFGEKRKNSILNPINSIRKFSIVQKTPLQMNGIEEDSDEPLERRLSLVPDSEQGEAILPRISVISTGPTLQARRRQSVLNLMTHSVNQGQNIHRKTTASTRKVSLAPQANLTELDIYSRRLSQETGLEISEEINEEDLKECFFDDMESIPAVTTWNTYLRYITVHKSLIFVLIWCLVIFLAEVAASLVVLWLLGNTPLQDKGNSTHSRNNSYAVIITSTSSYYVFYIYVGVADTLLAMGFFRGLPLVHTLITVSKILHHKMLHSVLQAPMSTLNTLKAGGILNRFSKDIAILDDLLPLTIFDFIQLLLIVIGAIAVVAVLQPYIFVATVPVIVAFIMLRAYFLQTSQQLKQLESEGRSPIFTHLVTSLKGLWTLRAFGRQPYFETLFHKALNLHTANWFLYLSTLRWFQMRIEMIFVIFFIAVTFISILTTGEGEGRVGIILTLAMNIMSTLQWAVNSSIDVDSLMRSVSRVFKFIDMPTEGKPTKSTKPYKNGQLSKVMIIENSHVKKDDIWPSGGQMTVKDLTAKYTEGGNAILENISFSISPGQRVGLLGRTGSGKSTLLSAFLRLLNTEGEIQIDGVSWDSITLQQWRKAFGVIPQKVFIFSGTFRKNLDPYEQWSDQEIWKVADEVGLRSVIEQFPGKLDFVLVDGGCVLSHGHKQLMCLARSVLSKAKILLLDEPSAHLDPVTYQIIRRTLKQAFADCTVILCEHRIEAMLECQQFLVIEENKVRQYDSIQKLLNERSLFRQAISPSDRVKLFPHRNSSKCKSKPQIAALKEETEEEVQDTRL

CFTR [2] = target: T1, CFTR; assay: Membrane Potential Dye, Enteroid Assay B; type: cell-based; conditions: for EC50: read-out: Ent. B EC50
Summary of the method: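 Enteroid cells loaded 25 min at room temperature with 20 μM methyl oxonol plus 30 μM CaCCinh-A01 and 30 μM Chicago Sky Blue, then switched to chloride-free gluconate buffer. Chloride transport was started by chloride-free stimulation solution, with fluorescence read for 15 min.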
Target sequence in this assay (P13569 with tags, fused parts or gaps DEL508-508): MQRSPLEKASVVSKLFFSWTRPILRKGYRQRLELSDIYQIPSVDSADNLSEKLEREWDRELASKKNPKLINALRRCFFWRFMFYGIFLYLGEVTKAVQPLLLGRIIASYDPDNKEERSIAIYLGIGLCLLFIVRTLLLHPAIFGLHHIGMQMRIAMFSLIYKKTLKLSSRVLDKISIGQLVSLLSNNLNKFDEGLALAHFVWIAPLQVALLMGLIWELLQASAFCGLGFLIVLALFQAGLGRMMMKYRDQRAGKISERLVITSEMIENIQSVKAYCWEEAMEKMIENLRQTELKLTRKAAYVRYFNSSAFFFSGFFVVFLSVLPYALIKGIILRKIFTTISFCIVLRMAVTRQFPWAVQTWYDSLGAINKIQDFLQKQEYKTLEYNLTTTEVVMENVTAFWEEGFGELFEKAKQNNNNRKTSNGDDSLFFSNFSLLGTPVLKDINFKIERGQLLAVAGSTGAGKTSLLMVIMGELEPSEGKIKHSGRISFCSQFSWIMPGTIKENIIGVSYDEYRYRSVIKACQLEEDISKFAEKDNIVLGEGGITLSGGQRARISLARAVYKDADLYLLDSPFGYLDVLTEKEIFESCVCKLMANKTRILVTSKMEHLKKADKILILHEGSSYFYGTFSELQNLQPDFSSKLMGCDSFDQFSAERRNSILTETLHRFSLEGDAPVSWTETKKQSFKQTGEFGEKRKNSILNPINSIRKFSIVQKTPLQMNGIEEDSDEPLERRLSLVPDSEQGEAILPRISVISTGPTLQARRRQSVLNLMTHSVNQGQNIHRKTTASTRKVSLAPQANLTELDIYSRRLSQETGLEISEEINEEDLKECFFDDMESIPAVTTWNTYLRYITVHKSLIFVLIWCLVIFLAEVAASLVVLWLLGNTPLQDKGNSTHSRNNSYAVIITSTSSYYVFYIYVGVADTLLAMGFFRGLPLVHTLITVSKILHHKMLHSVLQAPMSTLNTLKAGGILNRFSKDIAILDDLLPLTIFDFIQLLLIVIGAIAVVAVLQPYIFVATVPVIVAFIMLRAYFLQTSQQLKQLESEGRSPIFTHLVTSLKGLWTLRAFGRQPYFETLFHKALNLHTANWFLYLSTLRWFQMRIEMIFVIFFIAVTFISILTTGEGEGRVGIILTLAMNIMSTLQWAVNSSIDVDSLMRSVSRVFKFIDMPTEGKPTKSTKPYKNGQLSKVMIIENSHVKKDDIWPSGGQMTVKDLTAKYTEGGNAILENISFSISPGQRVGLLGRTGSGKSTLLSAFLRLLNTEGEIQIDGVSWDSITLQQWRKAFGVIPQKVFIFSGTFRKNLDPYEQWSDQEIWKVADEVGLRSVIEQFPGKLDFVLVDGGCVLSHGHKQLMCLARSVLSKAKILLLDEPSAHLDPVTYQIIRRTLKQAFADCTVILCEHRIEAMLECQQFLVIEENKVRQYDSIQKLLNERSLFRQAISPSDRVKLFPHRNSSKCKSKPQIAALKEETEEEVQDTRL

CFTR [3] = target: T1, CFTR; assay: Membrane Potential Dye, Enteroid Assay A; type: cell-based; conditions: for EC50: read-out: Ent. A EC50
Summary of the method: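 Signal is reported as % Activity relative to a triple CFTR modulator control (3 μM + 3 μM + 300 nM acute). Read-out: membrane potential fluorescence (20 μM methyl oxonol) monitored for 15 min after chloride-free stimulation. Dye loading took 25 min at room temperature in Bath 1 buffer containing CaCC blockers.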
Target sequence in this assay (P13569 with tags, fused parts or gaps DEL508-508): as above

F508del = target: T2, F508del (Homo sapiens, UniProt P13569, DEL508-508); assay: 3T3 assay: membrane potential optical assay for F508del correction in NIH 3T3 cells; type: cell-based; conditions: Table 8
T2 construct: expressed in transfected cells
T2 sequence (P13569 with tags, fused parts or gaps DEL508-508): as above
Summary of the method: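 NIH 3T3 mouse fibroblasts stably expressing F508del were incubated with corrector compounds at a range of concentrations for 16–24 h at 37° C, then loaded with a redistribution voltage-sensing dye. A single addition of forskolin under a chloride gradient (gluconate-substituted bath, pH 7.4) gave the membrane-potential response, read by FLIPR.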

CFTR [4] = target: T3, CFTR (Homo sapiens, UniProt P13569, DEL508-508); assay: HBE assay: Ussing chamber assay of CFTR-mediated short-circuit currents in F508del/MF-HBE cells; type: cell-based; conditions: 20% human serum
T3 construct: endogenous in cells; host or cells: primary human bronchial epithelial cells from CF subjects (F508del/MF)
T3 sequence (P13569 with tags, fused parts or gaps DEL508-508): as above
Experimental: 1. Ussing Chamber Assay of CFTR-Mediated Short-Circuit Currents
Ussing chamber experiments were performed using human bronchial epithelial (HBE) cells derived from CF subjects heterozygous for F508del and a minimal function CFTR mutation (F508del/MF-HBE) and cultured as previously described (Neuberger T, Burton B, Clark H, Van Goor F Methods Mol Biol 2011:741:39-54). After four days the apical media was removed, and the cells were grown at an air liquid interface for >14 days prior to use.
To isolate the CFTR-mediated short-circuit (Isc) current, F508del/MF-HBE grown on Costar® Snapwell™ cell culture inserts were mounted in an Ussing chamber and the transepithelial Isc was measured under voltage-clamp recording conditions (Vhold=0 mV) at 37° C. The basolateral solution contained (in mM) 145 NaCl, 0.83 K2HPO4, 3.3 KH2P04, 1.2 MgCl2, 1.2 CaCl2), 10 Glucose, 10 HEPES (pH adjusted to 7.4 with NaOH) and the apical solution contained (in mM) 145 NaGluconate, 1.2 MgCl2, 1.2 CaCl2), 10 glucose, 10 HEPES (pH adjusted to 7.4 with NaOH) and 30 μM amiloride to block the epithelial sodium channel. Forskolin (20 μM) was added to the apical surface to activate CFTR, followed by apical addition of a CFTR inhibitor cocktail consisting of BPO, GlyH-101, and CFTR inhibitor 172 (each at 20 μM final assay concentration) to specifically isolate CFTR currents. The CFTR-mediated Isc (ρA/cm^2) for each condition was determined from the peak forskolin response to the steady-state current following inhibition.
2. Identification of Corrector Compounds
The activity of the CFTR corrector compounds on the CFTR-mediated Isc was determined in Ussing chamber studies as described above. The F508del/MF-HBE cell cultures were either incubated with the corrector compounds at a range of concentrations in combination with 1 μM Ivacaftor or were incubated with the corrector compounds at a single fixed concentration of 10 μM in combination with 1 μM Ivacaftor for 18-24 hours at 37° C. and in the presence of 20% human serum. The concentration of corrector compounds with 1 μM Ivacaftor during the 18-24 hours incubations was kept constant throughout the Ussing chamber measurement of the CFTR-mediated Isc to ensure compounds were present throughout the entire experiment.

[5] = amide bond, 13-membered ring, DMF, 25.0 °C

## C[C@@H]1CCCCC[C@](O)(C(F)(F)F)C2=NN=C(O2)c2nc(c(C(F)(F)F)cc2N)O1 [(6R,12R)-17-amino-12-methyl-6,15-bis(trifluoromethyl)-13,19-dioxa-3,4,18-triazatricyclo[12.3.1.12,5]nonadeca-1(18),2,4,14,16-pentaen-6-ol]
CFTR [1]
  CFTR modulatory activity: confirmed

## C=CCCCCCC[C@@H]1COc2cc(-c3ccccc3C=C)nc(n2)NS(=O)(=O)c2cccc(c2)C(=O)N1 [Compound 35, (11R)-11-Oct-7-enyl-2,2-dioxo-6-(2-vinylphenyl)-9-oxa-2λ^6-thia-3,5,12,19-tetrazatricyclo[12.3.1.14,8]nonadeca-1(18),4,6,8(19),14,16-hexaen-13-one]
From C=CCCCCCC[C@@H](N)COc1cc(-c2ccccc2C=C)nc(NS(=O)(=O)c2cccc(C(=O)O)c2)n1, amide bond, 13-membered ring, HATU/NaOtBu, DMF/THF, 19.4 mM, 0.0 °C, 0.67 h, 2 steps
  ring closure, isolated yield: 35%
CFTR [2]; Table 9
  Ent. B Max Activity: ++ (++ is 30-60%)
  EC50: < 1000 nM

## CC(C)C[C@@H]1COc2cc(Cl)nc(n2)NS(=O)(=O)c2cccc(c2)C(=O)N1
From CC(C)C[C@@H](N)COc1cc(Cl)nc(NS(=O)(=O)c2cccc(C(=O)O)c2)n1, amide bond, 13-membered ring, HATU/Et3N, DMF, 29.1 mM, -5.0 °C, 0.17 h
  ring closure, isolated yield: 30%

## Cc1cccc(C)c1-c1cc2nc(n1)NS(=O)(=O)c1cccc(c1)C(=O)NCC1(CCN(C(=O)OC(C)(C)C)CC1)CO2 [Compound 81, tert-Butyl 6-(2,6-dimethylphenyl)-2,2,14-trioxo-spiro[9-oxa-2λ^6-thia-3,5,13,20-tetrazatricyclo[13.3.1.14,8]icosa-1(19),4(20),5,7,15,17-hexaene-11,4′-piperidine]-1′-carboxylate]
From Cc1cccc(C)c1-c1cc(Cl)nc(NS(=O)(=O)c2cccc(C(=O)NCC3(CO)CCN(C(=O)OC(C)(C)C)CC3)c2)n1, snar bond, 14-membered ring, NaH, THF, 5.0 mM, 25.0 °C, 3.0 h
  ring closure, isolated yield: 66%
CFTR [3]; Enteroid Assay A
  EC50: 1000 to 3000 nM

## O=S1(=O)Nc2nc(Cl)cc(n2)-c2ccccc2CCCNc2cccc1c2
From CC1(C)OB(c2ccccc2CCCNc2cccc(S(=O)(=O)Nc3nc(Cl)cc(Cl)n3)c2)OC1(C)C, cc_pd bond, 14-membered ring, Pd(PPh3)4/K2CO3, 1,4-dioxane/water, 11.2 mM, 90.0 °C, 5.0 h
  ring closure, isolated yield: 19%

## Cc1cccc(C)c1-c1cc2nc(n1)NS(=O)(=O)c1cccc(c1)C(=O)NCC(c1ccc(C3(C(F)(F)F)CC3)cc1)O2 (stereo not drawn)
From Cc1cccc(C)c1-c1cc(OC(CN)c2ccc(C3(C(F)(F)F)CC3)cc2)nc(NS(=O)(=O)c2cccc(C(=O)O)c2)n1, amide bond, 13-membered ring, HATU/NaOtBu, THF/DMF, 67.1 mM, 25.0 °C, 0.75 h, 2 steps
  ring closure, isolated yield: 26%

## Cc1cccc(C)c1-c1cc2nc(n1)NS(=O)(=O)c1cccc(c1)C(=O)N[C@H](C)[C@@H](c1ccc(C(C)(C)C)cc1)O2 [Compound 38, (10R,11R)-10-(4-tert-Butylphenyl)-6-(2,6-dimethylphenyl)-11-methyl-9-oxa-2λ^6-thia-3,5,12,19-tetraazatricyclo[12.3.1.14,8]nonadeca-1(18),4,6,8(19),14,16-hexaene-2,2,13-trione]
From Cc1cccc(C)c1-c1cc(O[C@H](c2ccc(C(C)(C)C)cc2)[C@@H](C)N)nc(NS(=O)(=O)c2cccc(C(=O)O)c2)n1, amide bond, 13-membered ring, HATU/NaOtBu, DMF/MeTHF, 52.6 mM, 25.0 °C, 16.0 h, 2 steps
  ring closure, isolated yield: 39%
F508del; NIH3T3, read-out: 3T3 Max Activity
  Emax: > 60%
F508del
  EC50: < 1000 nM
CFTR [2]; Table 8
  Ent. B Max Activity: +++ (+++ is >60%)
  EC50: < 1000 nM
CFTR [3]; Table 8
  Ent. A Max Activity: +++ (+++ is >60%)
  EC50: < 1000 nM

## Cc1cccc(C)c1-c1cc2nc(n1)NS(=O)(=O)c1cccc(c1)C(=O)N[C@@H]1CN(C(=O)OC(C)(C)C)C[C@H]1O2 [Compound 57, tert-Butyl (3R,7R)-19-(2,6-dimethylphenyl)-9,15,15-trioxo-2-oxa-15λ^6-thia-5,8,16,18,21-pentaazatetracyclo[15.3.1.110,14.03,7]docosa-1(20),10(22),11,13,17(21),18-hexaene-5-carboxylate]
From Cc1cccc(C)c1-c1cc(O[C@@H]2CN(C(=O)OC(C)(C)C)C[C@H]2N)nc(NS(=O)(=O)c2cccc(C(=O)O)c2)n1, amide bond, 13-membered ring, HATU/DIEA, DMF, 17.1 mM, 72.0 h
  ring closure, isolated yield: 18%
CFTR [2]; Table 9
  Ent. B Max Activity: +++ (+++ is >60%)
  EC50: 1000 to 3000 nM
CFTR [3]; Table 9
  Ent. A Max Activity: +++ (+++ is >60%)
  EC50: 1000 to 3000 nM

## COCN1c2nc3cc(n2)-c2ccccc2/C=C/CCCCCC[C@H](CO3)NC(=O)c2cccc(c2)S1(=O)=O
From C=CCCCCCC[C@@H]1COc2cc(-c3ccccc3C=C)nc(n2)N(COC)S(=O)(=O)c2cccc(c2)C(=O)N1, rcm bond, 16-membered ring, Grubbs II, toluene, 16.4 mM, 100.0 °C, 1.5 h
  ring closure, isolated yield: 80%

## Cc1ccc(C)c(-c2cc3nc(n2)NS(=O)(=O)c2cccc(c2)C(=O)N[C@H](CC(C)(C)C)CO3)c1C [Compound 51, (11R)-11-(2,2-Dimethylpropyl)-6-(2,3,6-trimethylphenyl)-9-oxa-2λ^6-thia-3,5,12,19-tetraazatricyclo[12.3.1.14,8]nonadeca-1(18),4,6,8(19),14,16-hexaene-2,2,13-trione]
CFTR [4]; range of concentrations in combination with 1 μM Ivacaftor, 18-24 hours at 37° C.
  EC50: < 1000 nM
CFTR [4]; with 1 μM Ivacaftor, 18-24 hours, compared to known Vertex corrector with 18 μM Tezacaftor and 1 μM Ivacaftor, read-out: HBE Max Activity (%)
  Emax: > 60%
[5]; from Cc1ccc(C)c(-c2cc(OC[C@H](N)CC(C)(C)C)nc(NS(=O)(=O)c3cccc(C(=O)O)c3)n2)c1C, CDMT/NMM, 23.7 mM, 16.0 h
  ring closure, yield after HPLC: 31%

## Cc1cccc(C)c1-c1cc2nc(n1)NS(=O)(=O)c1cccc(c1)C(=O)N[C@@H]1CN(C(=O)OC(C)(C)C)CC[C@H]1O2 [Compound 59, tert-Butyl (3R,8R)-20-(2,6-dimethylphenyl)-10,16,16-trioxo-2-oxa-16λ^6-thia-6,9,17,19,22-pentaazatetracyclo[16.3.1.111,15.03,8]tricosa-1(21),11(23),12,14,18(22),19-hexaene-6-carboxylate]
From Cc1cccc(C)c1-c1cc(O[C@@H]2CCN(C(=O)OC(C)(C)C)C[C@H]2N)nc(NS(=O)(=O)c2cccc(C(=O)O)c2)n1, amide bond, 13-membered ring, COMU/DIEA, DMF, 19.4 mM, 19.0 h
  ring closure, isolated yield: 34%
CFTR [3]; Table 9
  Ent. A Max Activity: +++ (+++ is >60%)
  EC50: < 1000 nM

## Cc1cccc(C)c1-c1cc2nc(n1)NS(=O)(=O)c1cccc(c1)C(=O)NCC(c1ccc(Br)cc1)O2 (stereo not drawn)
From Cc1cccc(C)c1-c1cc(OC(CN)c2ccc(Br)cc2)nc(NS(=O)(=O)c2cccc(C(=O)O)c2)n1, amide bond, 13-membered ring, HATU/DIEA, DMF, 26.4 mM, 25.0 °C, 2.0 h
  ring closure, isolated yield: 25%
[5]; from Cc1cccc(C)c1-c1cc(OC(CN)c2ccc(Br)cc2)nc(NS(=O)(=O)c2cccc(C(=O)O)c2)n1, FDPP/DIEA, 36.8 mM, 1.0 h
  ring closure, yield after HPLC: 52%
